Results taken from publication PMC6009956, “Design, synthesis and biological activity of N^4-phenylsubstituted-7H-pyrrolo[2,3-d]pyrimidin-4-amines as dual inhibitors of aurora kinase A and epidermal growth factor receptor kinase” (Journal of Enzyme Inhibition and Medicinal Chemistry, 2017).
Where two headings read alike, the source gives them in different places.

Experiments:
[1] = biological target: T1, aurora A kinase (AURKA) (Homo sapiens, UniProt O14965); assay: ADP-Glo kinase assay, Aurora A; format: biochemical
T1 construct: purchased BPS Bioscience (assay run externally by the vendor)
T1 sequence (O14965 1-403): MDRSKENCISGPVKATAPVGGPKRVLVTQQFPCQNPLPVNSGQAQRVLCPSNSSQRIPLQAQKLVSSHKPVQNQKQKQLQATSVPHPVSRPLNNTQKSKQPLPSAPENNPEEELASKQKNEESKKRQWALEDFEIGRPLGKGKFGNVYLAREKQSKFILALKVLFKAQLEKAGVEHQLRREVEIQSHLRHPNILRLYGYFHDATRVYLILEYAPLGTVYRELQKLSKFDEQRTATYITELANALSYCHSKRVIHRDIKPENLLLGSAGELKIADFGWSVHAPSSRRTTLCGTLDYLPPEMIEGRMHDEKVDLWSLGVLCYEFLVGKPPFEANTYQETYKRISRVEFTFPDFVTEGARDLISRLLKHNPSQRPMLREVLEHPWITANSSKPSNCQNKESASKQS

[2] = biological target: EGFR (Homo sapiens, UniProt P00533); assay: ADP-Glo kinase assay, EGFR; format: biochemical; design: purchased BPS Bioscience (assay run externally by the vendor)
Chain of EGFR (P00533 25-1210): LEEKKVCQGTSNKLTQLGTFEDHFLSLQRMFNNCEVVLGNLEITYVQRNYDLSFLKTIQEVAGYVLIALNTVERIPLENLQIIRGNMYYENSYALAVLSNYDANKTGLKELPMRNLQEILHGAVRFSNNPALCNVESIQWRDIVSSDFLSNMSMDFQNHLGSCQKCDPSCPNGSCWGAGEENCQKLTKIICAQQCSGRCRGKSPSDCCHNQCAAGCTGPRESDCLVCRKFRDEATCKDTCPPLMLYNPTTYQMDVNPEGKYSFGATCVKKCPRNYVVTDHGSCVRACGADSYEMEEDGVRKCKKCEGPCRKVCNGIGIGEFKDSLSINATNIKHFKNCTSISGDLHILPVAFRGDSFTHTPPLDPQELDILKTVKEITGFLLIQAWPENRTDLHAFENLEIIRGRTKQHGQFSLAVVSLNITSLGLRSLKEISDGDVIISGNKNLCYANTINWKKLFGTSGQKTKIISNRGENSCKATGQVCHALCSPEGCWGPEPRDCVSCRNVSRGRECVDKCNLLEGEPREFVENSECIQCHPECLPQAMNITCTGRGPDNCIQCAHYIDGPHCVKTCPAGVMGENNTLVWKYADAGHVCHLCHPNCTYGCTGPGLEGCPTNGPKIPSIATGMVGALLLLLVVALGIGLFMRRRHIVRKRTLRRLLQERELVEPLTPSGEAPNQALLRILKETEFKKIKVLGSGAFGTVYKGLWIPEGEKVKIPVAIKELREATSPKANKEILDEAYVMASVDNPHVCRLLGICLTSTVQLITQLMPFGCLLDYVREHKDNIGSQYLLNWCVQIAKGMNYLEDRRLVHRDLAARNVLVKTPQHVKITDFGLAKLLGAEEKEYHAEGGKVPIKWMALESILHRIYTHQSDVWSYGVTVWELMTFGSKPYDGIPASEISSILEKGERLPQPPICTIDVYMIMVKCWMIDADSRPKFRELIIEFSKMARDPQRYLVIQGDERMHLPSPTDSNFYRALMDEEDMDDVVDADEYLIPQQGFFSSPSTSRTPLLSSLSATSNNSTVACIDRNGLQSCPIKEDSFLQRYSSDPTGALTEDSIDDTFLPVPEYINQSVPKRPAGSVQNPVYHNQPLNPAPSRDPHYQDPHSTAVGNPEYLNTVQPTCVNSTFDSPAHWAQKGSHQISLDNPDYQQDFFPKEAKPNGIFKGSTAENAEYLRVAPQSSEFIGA

Clc1ccccc1Nc1ncnc2[nH]ccc12 [Compound 14, N^4-(2-chlorophenyl)-7H-pyrrolo[2,3-d]pyrimidin-4-amine]
IC50 ([1]; 10 µM ATP, triplicate, read-out: AURKA IC50 ± SD): 5.66 ± 0.43 µM | IC50 ([1]; 10 µM ATP/0.2 mg/ml Kemptide, read-out: Aurora A IC50 (dose-response curve, supplement)): 5.7 µM | Aurora A % Activity Set1 ([1]; Log[nM] 0): 97% | Aurora A % Activity Set2 ([1]; Log[nM] 0): 92% | Aurora A % Activity Set3 ([1]; Log[nM] 0): 94% | Aurora A % Activity Set1 ([1]; Log[nM] 1.0): 102% | Aurora A % Activity Set2 ([1]; Log[nM] 1.0): 97% | Aurora A % Activity Set3 ([1]; Log[nM] 1.0): 98% | Aurora A % Activity Set1 ([1]; Log[nM] 1.5): 111% | Aurora A % Activity Set2 ([1]; Log[nM] 1.5): 96% | Aurora A % Activity Set3 ([1]; Log[nM] 1.5): 98% | Aurora A % Activity Set1 ([1]; Log[nM] 2.0): 103% | Aurora A % Activity Set2 ([1]; Log[nM] 2.0): 98% | Aurora A % Activity Set3 ([1]; Log[nM] 2.0): 102% | Aurora A % Activity Set1 ([1]; Log[nM] 2.5): 101% | Aurora A % Activity Set2 ([1]; Log[nM] 2.5): 106% | Aurora A % Activity Set3 ([1]; Log[nM] 2.5): 101% | Aurora A % Activity Set1 ([1]; Log[nM] 3.0): 87% | Aurora A % Activity Set2 ([1]; Log[nM] 3.0): 86% | Aurora A % Activity Set3 ([1]; Log[nM] 3.0): 93% | Aurora A % Activity Set1 ([1]; Log[nM] 3.5): 73% | Aurora A % Activity Set2 ([1]; Log[nM] 3.5): 68% | Aurora A % Activity Set3 ([1]; Log[nM] 3.5): 73% | Aurora A % Activity Set1 ([1]; Log[nM] 4.0): 28% | Aurora A % Activity Set2 ([1]; Log[nM] 4.0): 25% | Aurora A % Activity Set3 ([1]; Log[nM] 4.0): 27% | Aurora A % Activity Set1 ([1]; Log[nM] 4.5): 14% | Aurora A % Activity Set2 ([1]; Log[nM] 4.5): 13% | Aurora A % Activity Set3 ([1]; Log[nM] 4.5): 14% | Aurora A % Activity Set1 ([1]; Log[nM] 5.0): 13% | Aurora A % Activity Set2 ([1]; Log[nM] 5.0): 11% | Aurora A % Activity Set3 ([1]; Log[nM] 5.0): 14% | IC50 ([2]; 10 µM ATP, triplicate, read-out: EGFR IC50 ± SD): 471 ± 114 nM | IC50 ([2]; 10 µM ATP/0.2 mg/ml Poly-Glu-Tyr, read-out: EGFR IC50 (dose-response curve, supplement)): 471 nM | EGFR % Activity Set1 ([2]; Log[nM] 0): 100% | EGFR % Activity Set2 ([2]; Log[nM] 0): 95% | EGFR % Activity Set3 ([2]; Log[nM] 0): 94% | EGFR % Activity Set1 ([2]; Log[nM] 1.0): 105% | EGFR % Activity Set2 ([2]; Log[nM] 1.0): 90% | EGFR % Activity Set3 ([2]; Log[nM] 1.0): 96% | EGFR % Activity Set1 ([2]; Log[nM] 1.5): 108% | EGFR % Activity Set2 ([2]; Log[nM] 1.5): 83% | EGFR % Activity Set3 ([2]; Log[nM] 1.5): 93% | EGFR % Activity Set1 ([2]; Log[nM] 2.0): 89% | EGFR % Activity Set2 ([2]; Log[nM] 2.0): 75% | EGFR % Activity Set3 ([2]; Log[nM] 2.0): 84% | EGFR % Activity Set1 ([2]; Log[nM] 2.5): 62% | EGFR % Activity Set2 ([2]; Log[nM] 2.5): 53% | EGFR % Activity Set3 ([2]; Log[nM] 2.5): 57% | EGFR % Activity Set1 ([2]; Log[nM] 3.0): 36% | EGFR % Activity Set2 ([2]; Log[nM] 3.0): 27% | EGFR % Activity Set3 ([2]; Log[nM] 3.0): 33% | EGFR % Activity Set1 ([2]; Log[nM] 3.5): 16% | EGFR % Activity Set2 ([2]; Log[nM] 3.5): 14% | EGFR % Activity Set3 ([2]; Log[nM] 3.5): 16% | EGFR % Activity Set1 ([2]; Log[nM] 4.0): 8% | EGFR % Activity Set2 ([2]; Log[nM] 4.0): 6% | EGFR % Activity Set3 ([2]; Log[nM] 4.0): 7% | EGFR % Activity Set1 ([2]; Log[nM] 4.5): 4% | EGFR % Activity Set2 ([2]; Log[nM] 4.5): 3% | EGFR % Activity Set3 ([2]; Log[nM] 4.5): 3% | EGFR % Activity Set1 ([2]; Log[nM] 5.0): 5% | EGFR % Activity Set2 ([2]; Log[nM] 5.0): 4% | EGFR % Activity Set3 ([2]; Log[nM] 5.0): 4%
